Assay results: PubChem BioAssay (NCI)
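Following 48 hours of exposure in 96-well plates, responses at five concentrations were used to interpolate endpoints linearly. TGI: total growth inhibition.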

Legend:
Test in all cases: NCI anticancer screen, dose series, 48 h
[1] = system: SF-268 CNS
[2] = system: HOP-62 NSCLC
[3] = system: DMS 114 small cell lung
[4] = system: SF-295 CNS
[5] = system: KM12 colon
[6] = system: SN12C renal
[7] = system: SK-MEL-5 melanoma
[8] = system: OVCAR-5 ovarian
[9] = system: RPMI-8226 leukemia
[10] = system: OVCAR-3 ovarian
[11] = system: HOP-92 NSCLC
[12] = system: UACC-257 melanoma
[13] = system: SF-539 CNS
[14] = system: NCI-H23 lung
[15] = system: MALME-3M melanoma
[16] = system: EKVX NSCLC
[17] = system: HT29 colon
[18] = system: LOX IMVI melanoma
[19] = system: HCC-2998 colon
[20] = system: COLO 205 colon
[21] = system: A498 renal
[22] = system: SR leukemia
[23] = system: KM20L2 colon
[24] = system: NCI-H460 lung
[25] = system: LXFL 529 NSCLC
[26] = system: MOLT-4 leukemia
[27] = system: U251 CNS
[28] = system: IGROV1 ovarian
[29] = system: XF 498 CNS
[30] = system: SNB-19 CNS
[31] = system: OVCAR-8 ovarian
[32] = system: OVCAR-4 ovarian
[33] = system: HCT-116 colon
[34] = system: TK-10 renal
[35] = system: SK-OV-3 ovarian
[36] = system: K-562 leukemia
[37] = system: UO-31 renal
[38] = system: 786-0 renal
[39] = system: HL-60(TB) leukemia
[40] = system: A549 NSCLC
[41] = system: RXF 393 renal
[42] = system: M14 melanoma
[43] = system: SNB-75 CNS
[44] = system: ACHN renal
[45] = system: HOP-18 NSCLC
[46] = system: NCI-H226 lung
[47] = system: CCRF-CEM leukemia
[48] = system: SK-MEL-28 melanoma
[49] = system: NCI-H522 lung
[50] = system: SK-MEL-2 melanoma
[51] = system: M19-MEL melanoma
[52] = system: SW-620 colon
[53] = system: CAKI-1 renal
[54] = system: HCT-15 colon
[55] = system: SNB-78 CNS
[56] = system: DMS 273 small cell lung
[57] = system: UACC-62 melanoma
[58] = system: DLD-1 colon

## CCC1(O)C(=O)OCc2c1cc1n(c2=O)Cc2cc3cc(OC)c(OC)cc3nc2-1 (stereo not given)
[1]
  TGI: > 100 µM
[2]
  TGI: 8.38 µM
[3]
  TGI: > 100 µM
[4]
  TGI: > 100 µM
[5]
  TGI: > 100 µM
[6]
  TGI: 87.4 µM
[7]
  TGI: > 100 µM
[8]
  TGI: > 100 µM
[9]
  TGI: > 100 µM
[10]
  TGI: > 100 µM
[11]
  TGI: > 100 µM
[12]
  TGI: > 100 µM
[13]
  TGI: 35.2 µM
[14]
  TGI: > 100 µM
[15]
  TGI: > 100 µM
[16]
  TGI: > 100 µM
[17]
  TGI: > 100 µM
[18]
  TGI: > 100 µM
[19]
  TGI: > 100 µM
[20]
  TGI: > 100 µM
[21]
  TGI: > 100 µM
[22]
  TGI: 7.68 µM
[23]
  TGI: > 100 µM
[24]
  TGI: 28.5 µM
[25]
  TGI: > 100 µM
[26]
  TGI: > 100 µM
[27]
  TGI: 35 µM
[28]
  TGI: 67.4 µM
[29]
  TGI: > 100 µM
[30]
  TGI: 85.2 µM
[31]
  TGI: > 100 µM
[32]
  TGI: > 100 µM
[33]
  TGI: > 100 µM
[34]
  TGI: > 100 µM
[35]
  TGI: 89 µM
[36]
  TGI: > 100 µM
[37]
  TGI: > 100 µM
[38]
  TGI: 54.2 µM
[39]
  TGI: > 100 µM
[40]
  TGI: > 100 µM
[41]
  TGI: 71.8 µM
[42]
  TGI: > 100 µM
[43]
  TGI: 41 µM
[44]
  TGI: 37.3 µM
[45]
  TGI: > 100 µM
[46]
  TGI: 88.6 µM
[47]
  TGI: > 100 µM
[48]
  TGI: > 100 µM
[49]
  TGI: > 100 µM

## FC(F)(F)c1cccc(C=NC23CC4CC(CC(C4)C2)C3)c1
[1]
  TGI: > 100 µM
[2]
  TGI: > 100 µM
[3]
  TGI: > 100 µM
[4]
  TGI: > 100 µM
[5]
  TGI: > 100 µM
[50]
  TGI: > 100 µM
[6]
  TGI: > 100 µM
[51]
  TGI: > 100 µM
[7]
  TGI: > 100 µM
[8]
  TGI: > 100 µM
[9]
  TGI: > 100 µM
[52]
  TGI: > 100 µM
[10]
  TGI: > 100 µM
[53]
  TGI: > 100 µM
[12]
  TGI: > 100 µM
[13]
  TGI: > 100 µM
[14]
  TGI: > 100 µM
[15]
  TGI: > 100 µM
[16]
  TGI: > 100 µM
[17]
  TGI: > 100 µM
[18]
  TGI: > 100 µM
[19]
  TGI: > 100 µM
[20]
  TGI: > 100 µM
[21]
  TGI: > 100 µM
[22]
  TGI: > 100 µM
[23]
  TGI: > 100 µM
[24]
  TGI: > 100 µM
[26]
  TGI: > 100 µM
[27]
  TGI: > 100 µM
[28]
  TGI: > 100 µM
[54]
  TGI: > 100 µM
[29]
  TGI: > 100 µM
[30]
  TGI: > 100 µM
[31]
  TGI: > 100 µM
[32]
  TGI: > 100 µM
[55]
  TGI: > 100 µM
[33]
  TGI: > 100 µM
[34]
  TGI: > 100 µM
[35]
  TGI: > 100 µM
[36]
  TGI: > 100 µM
[37]
  TGI: > 100 µM
[38]
  TGI: > 100 µM
[39]
  TGI: > 100 µM
[40]
  TGI: > 100 µM
[41]
  TGI: > 100 µM
[42]
  TGI: > 100 µM
[43]
  TGI: > 100 µM
[44]
  TGI: > 100 µM
[46]
  TGI: > 100 µM
[56]
  TGI: > 100 µM
[48]
  TGI: > 100 µM

## N#CNC1=NC(Cc2ccccc2)C(=O)N1CCc1c[nH]c2ccccc12 (stereo not given)
[1]
  TGI: 83.5 µM
[2]
  TGI: 92.1 µM
[3]
  TGI: 91.9 µM
[4]
  TGI: > 100 µM
[5]
  TGI: > 100 µM
[6]
  TGI: > 100 µM
[51]
  TGI: 92.4 µM
[7]
  TGI: 41.7 µM
[9]
  TGI: > 100 µM
[52]
  TGI: > 100 µM
[10]
  TGI: > 100 µM
[57]
  TGI: 86 µM
[12]
  TGI: > 100 µM
[13]
  TGI: 83.2 µM
[14]
  TGI: > 100 µM
[16]
  TGI: 81.5 µM
[17]
  TGI: > 100 µM
[18]
  TGI: > 100 µM
[19]
  TGI: 48.6 µM
[20]
  TGI: 43.6 µM
[22]
  TGI: > 100 µM
[25]
  TGI: > 100 µM
[26]
  TGI: 58.3 µM
[28]
  TGI: > 100 µM
[54]
  TGI: > 100 µM
[58]
  TGI: > 100 µM
[29]
  TGI: 68.4 µM
[30]
  TGI: > 100 µM
[31]
  TGI: > 100 µM
[32]
  TGI: > 100 µM
[55]
  TGI: 63 µM
[33]
  TGI: 50.4 µM
[34]
  TGI: 89.9 µM
[35]
  TGI: 80.2 µM
[36]
  TGI: > 100 µM
[37]
  TGI: 64.5 µM
[38]
  TGI: 42.1 µM
[39]
  TGI: 60.5 µM
[40]
  TGI: > 100 µM
[42]
  TGI: > 100 µM
[43]
  TGI: 33.2 µM
[46]
  TGI: > 100 µM
[56]
  TGI: > 100 µM
[47]
  TGI: 74.6 µM
[48]
  TGI: 67.8 µM
